Test results reported in the supplement of paper PMC10290057.

What was measured:
[1] = test system: HCT116; assay: AC50 cell viability (CellTiter-Glo); higher = less potent; settings: 48 h
[2] = test system: HCT116; assay: efficacy (fitted maximal change in viability relative to DMSO control); higher = less cytotoxic (negative = loss of viability); settings: 48 h
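Wherever AC50 cell viability (CellTiter-Glo) is given: HCT116 colorectal carcinoma cells screened at five concentrations per compound, luminescent viability scaled between DMSO wells and empty wells on each plate, curves fitted per compound.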
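Wherever efficacy (fitted maximal change in viability relative to DMSO control) is given: Luminescence-based viability readout, five doses per compound, normalized against on-plate DMSO and empty-well controls, followed by dose-response curve fitting for every drug.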

SMILES	AC50 cell viability [1] [µM]	efficacy [2] [%]
CC(C)[N]1C=C(C)C2=C1C=C(C=C2C(=O)NC\C3=C(C)\C=C(C)/NC3=O)C4=CC=C(N=C4)N5CCN(C)CC5	20.9	-96.9
CC1(C)OC/2=C(\[C@H](NCC3=CC=CC=C3)[C@@H]1O)C(=O)C4=CC=CC=C4C2=O	2.95	-96.8
Cc1cc(-c2nc3cc(F)ccc3s2)ccc1NC(=O)[C@@H](N)CCCCN	7.42	-93.6
Cc1ccc2nc(NCCN)c3ncc(C)n3c2c1	2.35	-78.2
Cc1n[nH]c2ccc(-c3cncc(OC[C@@H](N)Cc4ccccc4)c3)cc12	0.59	-69.5
CCc1ccc(N(CC(C)C)[S+](=O)([O-])c2ccc(OCC3CCOCC3)c(CO)c2)cc1	23.5	-83.5
Cc1nc(Nc2n[nH]c3c2CN(C(=O)N[C@H](CN(C)C)c2ccccc2)C3(C)C)c2sccc2n1	0.0186	-64.7
CN1CCN([C@H]2CC[C@H](n3cc(-c4ccc(Oc5ccccc5)cc4)c4c(N)ncnc43)CC2)CC1	7.42	-110
CNC(=O)c1ccc2c(c1)NC(=O)/C2=C(\Nc1cccc(CN(C)C)c1)c1ccccc1	18.6	-93.1
CN[S+]([O-])(=O)NC1=NC=CC(=C1F)CC/2=C(C)/C3=CC=C(OC4=NC=CC=N4)C=C3OC2=O	1.66	-43.7
COC1=CC(=C2C(=O)N(COC/3=C/C(=O)N4\C=C/C=C(OCCN5CCCCC5)\C4=N3)[S+]([O-])(=O)C2=C1)C(C)C	20.9	-84.2
COc1cc(Nc2cnc(C#N)c(O[C@H](C)CN(C)C)n2)ncc1-c1cnn(C)c1	11.8	-121
C[C@@H](Oc1ccc2[nH]nc(/C=C/c3cnn(CCO)c3)c2c1)c1c(Cl)cncc1Cl	0.661	-79.4
Cn1cc(-c2ccc(F)c(C(F)(F)F)c2)nc1C1CCN(c2ncnc3[nH]ncc23)CC1	16.6	-40.4
Cn1ncc(Cl)c1-c1cc(C(=O)N[C@H](CN)Cc2cccc(F)c2)sc1Cl	14.8	-103
O=C(Nc1cccnn1)N1CCC(=Cc2cccc(Oc3ccc(C(F)(F)F)cn3)c2)CC1	14.8	-72.6
NC(=O)c1cccc2nc(-c3ccc([C@H]4CCCN4)cc3F)[nH]c12	10.5	-67.3
NCC1CCN(c2nccc(-c3ccc4ccccc4c3)n2)CC1	14.8	-126
N[S+]([O-])(=O)C1=CC=C(NC/2=C/C(=O)C3=CC=CC=C3C2=O)C=C1	10.5	-81.9
NC(CSC(c1ccccc1)(c1ccccc1)c1ccccc1)C(=O)O (stereo in doubt) [S-Trityl-L-cysteine]	23.5	-53.6

SMILES	AC50 cell viability [1] [µM]	efficacy [2] [%]
Nc1nc(F)nc2c1ncn2[C@@H]1O[C@H](CO)[C@@H](O)[C@@H]1O [2-Fluoroadenosine]	9.34	-57.1
COc1cc2c(cc1O)CC[C@@H]1[C@@H]2CC[C@]2(C)[C@@H](O)CC[C@@H]12 [2-Methoxyestradiol (2-MeOE2)]	2.35	-63.9
NC1=NC=CC2=C1N=C[N]2[C@@H]3\C=C(CO)/[C@@H](O)[C@H]3O [3-Deazaneplanocin A]	0.59	-55.4
Cn1cc(-c2ccc([S+](=O)([O-])n3ccc(/C=C/C(=O)Nc4ccccc4N)c3)cc2)cn1 [4SC-202]	1.48	-76.5
NC/1=N/C(=O)N(/C=N1)[C@@H]2O[C@H](CO)[C@@H](O)[C@H]2O [5-Azacitidine]	5.9	-82.6
CC(=O)O/N=C1/C(=C2\C(=O)Nc3cc(Br)ccc32)Nc2ccccc21 [6-Bromoindirubin-3'-acetoxime]	10.5	-92.3
S=C1N\C=N/C2=C1[NH]C=N2 [6-mercaptopurine]	1.66	-101
CN[C@@H]1C[C@H]2O[C@@](C)([C@@H]1OC)n1c3ccccc3c3c4c(c5c6ccccc6n2c5c31)C(=O)N[C@H]4O [7-Hydroxystaurosporine]	0.241	-92.5
CC[C@@]1(O)C(=O)OCC/2=C1/C=C3\N(CC4=CC5=CC(=CC=C5N=C34)O)C2=O [10-hydroxycamptothecin]	0.105	-79.9
CCCCC(C)(C)[C@H](O)/C=C/[C@H]1[C@H](O)CC(=O)[C@@H]1C/C=C\CCCC(=O)O [16,16-dimethyl PGE2]	20.9	-64.7
C=CCNC1=C2CC(C)CC(OC)C(O)C(C)/C=C(\C)C(OC(N)=O)C(OC)/C=C/C=C(\C)C(=O)NC(=CC1=O)C2=O (stereo not drawn) [17-AAG (KOS953)]	0.417	-60.5
COC[C@H]1OC(=O)C2=COC3=C2[C@@]1(C)\C4=C(\[C@@H]5CC[C@H](O)[C@@]5(C)C[C@H]4OC(C)=O)C3=O [17-hydroxy Wortmannin]	20.9	-59.9
COC[C@H]1OC(=O)C2=COC3=C2[C@@]1(C)\C4=C(C5CCC(=O)[C@@]5(C)C[C@H]4OC(C)=O)/C3=O (stereo partly drawn) [17_-hydroxy Wortmannin]	0.468	-43.9
CC1=CC=C2\N=C/3N(CC[C@@]3(O)C(=O)C2=C1)C4=CC=CC=C4 [(-)-Blebbistatin]	0.132	-35.7
Cc1cc2c(C(C)C)c(O)c(O)c(C=O)c2c(O)c1-c1c(C)cc2c(C(C)C)c(O)c(O)c(C=O)c2c1O [(-)-Gossypol]	16.6	-115
Cc1nc(NC(=O)N2CCC[C@H]2C(N)=O)sc1-c1csc(C(C)(C)C)n1 [A-66]	1.86	-33
Nc1ncnc2nc(-c3ccc(N4CCOCC4)nc3)cc(-c3cccc(Br)c3)c12 [ABT-702]	20.9	-53
CN(C)CC[C@H](CSc1ccccc1)Nc1ccc([S+](=O)([O-])NC(=O)c2ccc(N3CCN(Cc4ccccc4-c4ccc(Cl)cc4)CC3)cc2)cc1[N+](=O)[O-] [ABT-737]	20.9	-68.4
Cc1c(NC(=O)OC[C@@H]2COCCN2)cn2ncnc(Nc3ccc4c(cnn4Cc4cccc(F)c4)c3)c12 [AC-480]	20.9	-82.6
CC(=O)NC(C)c1ccc(Oc2ccc(OC(C)C)cc2)cc1 (stereo not drawn) [ACC1 BMS]	17.1	-47.8

SMILES	AC50 cell viability [1] [µM]	efficacy [2] [%]
Cc1ccc(Nc2nnc(Cc3ccncc3)c3ccccc23)cc1Br [ACC-789]	20.9	-84.8
O=C(CCCCCCNC(=O)c1cnc(N(c2ccccc2)c2ccccc2Cl)nc1)NO [ACY-241]	5.9	-86.2
O=C(NO)c1cnc(NC2(c3ccccc3)CC2)nc1 [ACY-738]	3.32	-79.1
O=C(NO)c1cnc(NC2(c3cccc(F)c3)CCCCC2)nc1 [ACY-775]	16.6	-75.6
O=C(CCCCCCNC(=O)c1cnc(N(c2ccccc2)c2ccccc2)nc1)NO [ACY-1215]	7.42	-93.5
Nc1ncnc2c1c(-c1cccc(OCc3ccccc3)c1)cn2[C@H]1C[C@H](CN2CCCC2)C1 [ADW-742]	16.6	-84.3
CCN1CCN(Cc2ccc(-c3cc4c(N[C@H](C)c5ccccc5)ncnc4[nH]3)cc2)CC1 [AEE-788]	16.6	-97.5
CCOC(CN1C(=O)[C@](CC(=O)Nc2ccc(C)cc2)(NC(=O)Nc2ccc(C)cc2)c2ccccc21)OCC [AG-041R]	23.5	-78.5
CC(C)(C)c1cc(C=C(C#N)C#N)cc(Br)c1O [AG-1024]	26.3	-86.1
COc1cc2ncnc(Nc3cccc(Cl)c3)c2cc1OC [AG-1478]	23.5	-91.8
O=C(Nc1cccc(C(F)(F)F)c1)Nc1cc([S+](=O)([O-])NC2CC2)ccc1-c1ccsc1 [AGI-6780]	26.3	-99.4
O=C(O)c1ccc2cc(-c3ccc(O)c(C45CC6CC(CC(C6)C4)C5)c3)ccc2c1 [AHPN]	2.95	-88.2
c1ccc(-c2oc3ncnc(NC[C@@H]4CCCO4)c3c2-c2ccccc2)cc1 [AIM-100]	9.34	-69.3
O=c1[nH]c2ccccc2n1C1CCN(Cc2ccc(-c3nc4cc5nc[nH]c5cc4nc3-c3ccccc3)cc2)CC1 [AKT Inhibitor VIII]	16.6	-84.5
CCN1CCN(Cc2ccc(NC(=O)c3ccc(C)c(NC(=O)c4cncc(-c5cccs5)c4)c3)cc2C(F)(F)F)CC1 [ALW-II-41-27]	1.86	-111
CN(CCO)C1CCN(c2ccc(Nc3ncc4c5ccnc(F)c5n(C5CCCC5)c4n3)nc2)CC1 [AM-5992]	1.02	-50
COC1=CC=C2C(=CC=NC2=C1)OC3=CC=C(NC(=O)\C4=C(C)\N(CC(C)(C)O)N(C4=O)C5=CC=CC=C5)C=C3F [AMG-1]	11.8	-67.9
CC\1=C(C(=O)N(\C=C1)C2=CC=C(C=C2)C3=NC=CO3)/C4=CC5=CN=C(N)N=C5C=C4 [AMG-25]	1.66	-47.6
Cc1ccc(C(=O)Nc2cccc(C(F)(F)F)c2)cc1-c1ccc2nc(NCCN3CCOCC3)ncc2c1 [AMG-47a]	2.35	-101
